Patent US8709406B2, “Prevention and treatment of oxidative stress disorders by gluthathione and phase II detoxification enzymes” (Brassica Foundation for ChemoProtection Research, priority 2001, dated 2014)
Like-named read-outs stand apart in the source and are kept apart here.

Columns and labels:
ARPE-19 cells = assay: Oxidant cytotoxicity (MTT viability, median effect analysis) and protection by 24 h sulforaphane pretreatment; assay type: cell-based, human; conditions: ARPE-19; for Dm of menadione: Example 3; for Dm of menadione / Dm (median effect concentration) of menadione / m (slope of median effect plot) for menadione: menadione 2 h; for Dm (median effect concentration) of tert-butyl hydroperoxide / m (slope of median effect plot) for tert-butyl hydroperoxide: tert-butyl hydroperoxide 16 h
Protocol: All experiments were performed in 96-well microliter plates. ARPE-19 and HaCaT cells were seeded at 10,000 cells per well and grown for 24 h before addition of sulforaphane, whereas L1210 cells (5,000 cells/well) were not incubated before sulforaphane treatment. Solutions of sulforaphane (5 mM) in dimethyl sulfoxide were diluted with the cognate culture medium to provide final inducer concentrations of 0.16-5.0 μM. The final DMSO concentrations were 0.1% by volume.
Tert-Butyl hydroperoxide (1 M) and 4-hydroxynonenal (25 mM) were dissolved in DMSO and diluted 1000-fold with serum-free medium before addition of serial dilutions to the microtiter plate wells. The final concentrations of DMSO were therefore less than 0.1% (by vol.). Menadione sodium bisulfite (0.5 M) and SIN-1 (0.5 M) were dissolved and added in PBS. ARPE-19 cells were exposed to menadione for 2 h and to tert-butyl hydroperoxide for 16 h, washed with PBS, and cell viability was determined by the MIT test. ARPE-19 cells were exposed to peroxynitrite for 2 h and 4-hydroxynonenal for 4 h, and the cells were then incubated in serum-free media for 22 and 20 h, respectively, washed with PBS, and cell viability was determined. The additional incubation periods were required for peroxynitrite and 4-hydroxynonenal to evoke maximal cytotoxicity.
Cell viability was determined by spectroscopic measurement of the reduction of MTT (Carmichael, J., DeGraff, W. G., Gazdar, A. F., Minna, J. D. & Mitchell, J. B. (1987) Cancer Res. 47, 936-942). The culture media were discarded after the designated incubation periods, the cells were washed three times with PBS by use of a microtiter plate washer (Ultrawash Plus, Dynex Technologies, Chantilly, Va.). Each well then received 150 μl of an MTT solution (0.5 mg/ml) in serum-free medium. The plates were incubated for 2 h at 37° C., the MTT solution was discarded, 100 μl of DMSO were added to each well, and the plates were shaken at 200 rpm on an orbital shaker for 5 min. The absorbances of the wells were determined at 555 nm with a microtiter plate reader (Spectra Max Plus, Molecular Devices, Sunnyvale, Calif.). The absorbance of reduced MIT was then compared at each inducer and oxidant concentration to that of untreated control cells that received only the vehicle in which sulforaphane (DMSO) and menadione (DMSO or PBS) were dissolved. In each experiment three identical 96-well plates were used and the means of the absorbance values, the standard deviations of these means, and their coefficients of variation were calculated.
Dose-effect analyses were performed according to the Median Effect Equation, by use of a computer program (Chou, T. C. & Hayball, M. (1996) CalcuSyn for Windows 3.1 and 95: multiple dose effect analyzer and manual for IBM-PC, Biosoft, Cambridge, U.K). The equation: fa/fu=[D/Dm]^m, where fa is the fraction of cells affected by the oxidant, fu is the fraction unaffected (i.e., 1-fa), D is the dose of oxidant required to produce the effect fa, Dm is the concentration of oxidant required to produce a 50% effect, i.e., when fa=fu, and the slope m is a measure of the sigmoidicity of the dose-response curve, and is therefore a measure of cooperativity. The results are analyzed by plotting log(fa/fu) with respect to log D of the oxidant. The computer program provides the slope (m) of the curves, and the goodness of fit (r^2) to linearity.

[1] = test system: glucose 6-phosphate dehydrogenase; conditions: ARPE-19; sulforaphane 0.625 and 2.5 μM 24 h, then medium without inducer
Protocol: Cells were lysed by addition of a digitonin solution (0.8 mg/ml digitonin in 2 mM EDTA, pH 7.8), incubated at 37° C. for 20 min, gently shaken for 20 min at 25° C., and centrifuged at 1,500×g for 20 min at 4° C.
All measurements were made in 96-well microtiter plates at 25° C., and reaction rates were monitored with a microtiter plate reader. The QR activities of supernatant fractions were determined by procedures developed in our laboratory (Fahey, J. W., Zhang, Y. & Talalay, P. (1997) Proc. Natl. Acad. Sci. USA 94, 10367-10372; Prochaska, H. J., Santamaria, A. B. & Talalay, P. (1992) Proc. Natl. Acad. Sci. USA 89, 2394-2398.). Specific activities were obtained by relating the reaction rates to protein concentrations determined with the bicinchoninic acid reagent (Smith, P. K., Krohn, R. I., Hermanson, G. T., Mallia, A. K., Gratner, F. H., Provenzano, M. D., Fujimoto, E. K., Goeke, N. M., Olson, B. J. & Klenk, D. C. (1985) Anal. Biochem. 150, 76-85). […] Glutathione reductase activity was assayed by mixing 50 μl of cell lysate with 25 μl of 1 mM NADPH, 25 μl of GSSG (20 mg/ml), and 150 μl of 50 mM sodium phosphate, pH 7.5. Initial reaction rates were obtained at 340 nm (Carlberg, I. & Mannervik, B. (1985) Methods Enzymol. 113, 484-490).

[2] = after sulforaphane 0.63 μM 24 h
[3] = after sulforaphane 1.25 μM 24 h
[4] = after sulforaphane 2.50 μM 24 h
[5] = after sulforaphane 5.00 μM 24 h

C[S+]([O-])CCCCN=C=S (stereo not shown) [Sulforaphane]
m (slope of median effect plot) for 4-hydroxynonenal (ARPE-19 cells; 4-hydroxynonenal 4 h, after sulforaphane 0.63 μM 24 h): 2.51 | EC50 (ARPE-19 cells; 4-hydroxynonenal 4 h, after sulforaphane 0.63 μM 24 h, read-out: Dm (median effect concentration) of 4-hydroxynonenal): 14.1 µM | m (slope of median effect plot) for 4-hydroxynonenal (ARPE-19 cells; 4-hydroxynonenal 4 h, after sulforaphane 1.25 μM 24 h): 2.78 | EC50 (ARPE-19 cells; 4-hydroxynonenal 4 h, after sulforaphane 1.25 μM 24 h, read-out: Dm (median effect concentration) of 4-hydroxynonenal): 25.8 µM | m (slope of median effect plot) for 4-hydroxynonenal (ARPE-19 cells; 4-hydroxynonenal 4 h, after sulforaphane 2.50 μM 24 h): 2.51 | EC50 (ARPE-19 cells; 4-hydroxynonenal 4 h, after sulforaphane 2.50 μM 24 h, read-out: Dm (median effect concentration) of 4-hydroxynonenal): 26.8 µM | Dm of menadione (ARPE-19 cells; after sulforaphane 0.625 μM 24 h): 69.2 µM | Dm of menadione (ARPE-19 cells; after sulforaphane 2.5 μM 24 h): 94.5 µM | degree of protection against different oxidants (ARPE-19 cells; comparable concentrations of sulforaphane): 2- to 3 fold | Dm (median effect concentration) of menadione (ARPE-19 cells; [2]): 98.6 µM | m (slope of median effect plot) for menadione (ARPE-19 cells; [2]): 3.69 | Dm (median effect concentration) of menadione (ARPE-19 cells; [3]): 110 µM | m (slope of median effect plot) for menadione (ARPE-19 cells; [3]): 3.49 | Dm (median effect concentration) of menadione (ARPE-19 cells; after sulforaphane 1.25 μM 24 h, listed as sulforaphane): 109.9 µM | Dm (median effect concentration) of menadione (ARPE-19 cells; [4]): 123 µM | m (slope of median effect plot) for menadione (ARPE-19 cells; [4]): 3.58 | Dm (median effect concentration) of menadione (ARPE-19 cells; after sulforaphane 2.50 μM 24 h, listed as sulforaphane): 122.9 µM | Dm (median effect concentration) of menadione (ARPE-19 cells; [5]): 134 µM | m (slope of median effect plot) for menadione (ARPE-19 cells; [5]): 3.12 | Dm (median effect concentration) of menadione (ARPE-19 cells; after sulforaphane 5.00 μM 24 h, listed as sulforaphane): 134.2 µM | m (slope of median effect plot) for peroxynitrite (ARPE-19 cells; peroxynitrite (from SIN-1) 2 h, after sulforaphane 0.63 μM 24 h): 6.30 | EC50 (ARPE-19 cells; peroxynitrite (from SIN-1) 2 h, after sulforaphane 0.63 μM 24 h, read-out: Dm (median effect concentration) of peroxynitrite): 2780 µM | m (slope of median effect plot) for peroxynitrite (ARPE-19 cells; peroxynitrite (from SIN-1) 2 h, after sulforaphane 1.25 μM 24 h): 6.19 | EC50 (ARPE-19 cells; peroxynitrite (from SIN-1) 2 h, after sulforaphane 1.25 μM 24 h, read-out: Dm (median effect concentration) of peroxynitrite): 2820 µM | m (slope of median effect plot) for peroxynitrite (ARPE-19 cells; peroxynitrite (from SIN-1) 2 h, after sulforaphane 2.50 μM 24 h): 6.62 | EC50 (ARPE-19 cells; peroxynitrite (from SIN-1) 2 h, after sulforaphane 2.50 μM 24 h, read-out: Dm (median effect concentration) of peroxynitrite): 2890 µM | time for which protection against menadione toxicity is maintained or exceeded after 24-h induction (ARPE-19 cells; sulforaphane 0.625 and 2.5 μM 24 h, then serum-free culture): at least 3 days | Dm (median effect concentration) of tert-butyl hydroperoxide (ARPE-19 cells; [2]): 140 µM | m (slope of median effect plot) for tert-butyl hydroperoxide (ARPE-19 cells; [2]): 2.17 | Dm (median effect concentration) of tert-butyl hydroperoxide (ARPE-19 cells; [3]): 163 µM | m (slope of median effect plot) for tert-butyl hydroperoxide (ARPE-19 cells; [3]): 1.79 | Dm (median effect concentration) of tert-butyl hydroperoxide (ARPE-19 cells; [4]): 165 µM | m (slope of median effect plot) for tert-butyl hydroperoxide (ARPE-19 cells; [4]): 1.26 | specific activity of glucose 6-phosphate dehydrogenase after removal of sulforaphane [1]: continued to rise for 48 h after removal of sulforaphane
